In article PMC5218480 (PLoS ONE, 2017):

System: MV-4-11 cells
Experiment: Gene expression microarray analysis (Affymetrix PrimeView) and GSEA
Type: cell-based, human
Parameters: RFU PODN (11730768_x_at) / Fold change /veh PODN (11730768_x_at) / RFU LINC00158 (11744669_a_at) / Fold change /veh LINC00158 (11744669_a_at) / RFU DUSP10 (11751237_a_at) / Fold change /veh DUSP10 (11751237_a_at) / RFU ID3 (11757404_x_at) / Fold change /veh ID3 (11757404_x_at) / RFU PLEKHG5 (11737974_s_at) / Fold change /veh PLEKHG5 (11737974_s_at) / RFU LRRC4B (11730491_at) / Fold change /veh LRRC4B (11730491_at) / RFU GIMAP4 (11747438_a_at) / Fold change /veh GIMAP4 (11747438_a_at) / RFU KRT8 (11758183_x_at) / Fold change /veh KRT8 (11758183_x_at) / RFU CNN1 (11734310_a_at) / Fold change /veh CNN1 (11734310_a_at) / RFU VPS37D (11726825_at) / Fold change /veh VPS37D (11726825_at) / RFU C10orf10 (11716522_x_at) / Fold change /veh C10orf10 (11716522_x_at) / RFU KIR2DL2 /// KIR2DL4 /// KIR2DL5A /// KIR2DL5B /// KIR2DS1 /// KIR2DS2 /// KIR2DS3 /// KIR2DS4 /// KIR3DL3 /// KIR3DL3 /// KIR3DS1 (11738374_at) / Fold change /veh KIR2DL2 /// KIR2DL4 /// KIR2DL5A /// KIR2DL5B /// KIR2DS1 /// KIR2DS2 /// KIR2DS3 /// KIR2DS4 /// KIR3DL3 /// KIR3DL3 /// KIR3DS1 (11738374_at) / RFU C1QL1 (11718748_at) / Fold change /veh C1QL1 (11718748_at) / RFU TMPRSS4 (11747572_a_at) / Fold change /veh TMPRSS4 (11747572_a_at) / RFU HAMP (11756126_x_at) / Fold change /veh HAMP (11756126_x_at) / RFU RNFT2 (11725882_a_at) / Fold change /veh RNFT2 (11725882_a_at) / RFU NR4A2 (11747474_a_at) / Fold change /veh NR4A2 (11747474_a_at) / RFU ABCC12 (11746883_a_at) / Fold change /veh ABCC12 (11746883_a_at) / RFU TMEM136 (11760407_x_at) / Fold change /veh TMEM136 (11760407_x_at) / RFU CLDN22 /// WWC2 (11732394_at) / Fold change /veh CLDN22 /// WWC2 (11732394_at) / RFU HLA-DPB1 (11760878_x_at) / Fold change /veh HLA-DPB1 (11760878_x_at) / RFU SPINT1 (11716480_a_at) / Fold change /veh SPINT1 (11716480_a_at) / RFU GAP43 (11754022_s_at) / Fold change /veh GAP43 (11754022_s_at) / RFU A4GNT (11735810_at) / Fold change /veh A4GNT (11735810_at) / RFU PRB3 (11715151_x_at) / Fold change /veh PRB3 (11715151_x_at) / RFU TUBB4B (11761932_at) / Fold change /veh TUBB4B (11761932_at) / RFU CAPN14 (11732068_a_at) / Fold change /veh CAPN14 (11732068_a_at) / RFU TMCC2 (11721928_a_at) / Fold change /veh TMCC2 (11721928_a_at) / RFU IRGQ (11745062_a_at) / Fold change /veh IRGQ (11745062_a_at) / RFU FAM174B (11720279_a_at) / Fold change /veh FAM174B (11720279_a_at) / RFU TMPRSS4 (11748680_a_at) / Fold change /veh TMPRSS4 (11748680_a_at) / RFU FAM212B (11763350_a_at) / Fold change /veh FAM212B (11763350_a_at) / RFU PLEKHG5 (11743358_a_at) / Fold change /veh PLEKHG5 (11743358_a_at) / RFU ZSCAN30 (11745921_a_at) / Fold change /veh ZSCAN30 (11745921_a_at) / RFU CMKLR1 (11741424_a_at) / Fold change /veh CMKLR1 (11741424_a_at) / RFU LOC101060620 /// MAPK8IP1 (11723275_at) / Fold change /veh LOC101060620 /// MAPK8IP1 (11723275_at) / RFU SPTSSB (11747773_x_at) / Fold change /veh SPTSSB (11747773_x_at) / RFU PRSS12 (11739890_at) / Fold change /veh PRSS12 (11739890_at) / RFU BIN1 (11741810_x_at) / Fold change /veh BIN1 (11741810_x_at) / RFU WNT11 (11732464_a_at) / Fold change /veh WNT11 (11732464_a_at) / RFU C10orf10 (11716521_a_at) / Fold change /veh C10orf10 (11716521_a_at) / RFU C5orf56 (11738089_at) / Fold change /veh C5orf56 (11738089_at) / RFU CYB561 (11721691_x_at) / Fold change /veh CYB561 (11721691_x_at) / RFU ANKRD19P (11752326_a_at) / Fold change /veh ANKRD19P (11752326_a_at) / RFU OR2T12 /// OR2T33 /// OR2T8 (11738714_s_at) / Fold change /veh OR2T12 /// OR2T33 /// OR2T8 (11738714_s_at) / RFU VCAN (11748164_a_at) / Fold change /veh VCAN (11748164_a_at) / RFU JSRP1 (11732532_at) / Fold change /veh JSRP1 (11732532_at) / RFU KRTAP10-11 (11738290_x_at) / Fold change /veh KRTAP10-11 (11738290_x_at) / RFU MYO3A (11730013_a_at) / Fold change /veh MYO3A (11730013_a_at) / RFU EBF3 (11725865_a_at) / Fold change /veh EBF3 (11725865_a_at) / RFU CAMK2N1 (11719241_x_at) / Fold change /veh CAMK2N1 (11719241_x_at) / RFU C5orf56 (11738088_a_at) / Fold change /veh C5orf56 (11738088_a_at) / RFU OLFML3 (11715873_a_at) / Fold change /veh OLFML3 (11715873_a_at) / RFU LOC100653217 /// NTM (11731650_a_at) / Fold change /veh LOC100653217 /// NTM (11731650_a_at) / RFU MAPK11 (11762145_a_at) / Fold change /veh MAPK11 (11762145_a_at) / RFU FIZ1 (11724087_x_at) / Fold change /veh FIZ1 (11724087_x_at) / RFU OASL (11726364_x_at) / Fold change /veh OASL (11726364_x_at) / RFU SOX15 (11748057_x_at) / Fold change /veh SOX15 (11748057_x_at) / RFU CD79A (11719716_a_at) / Fold change /veh CD79A (11719716_a_at) / RFU HIST1H1D (11736915_at) / Fold change /veh HIST1H1D (11736915_at) / RFU CASKIN2 (11723855_a_at) / Fold change /veh CASKIN2 (11723855_a_at) / RFU LOC730098 (11760151_x_at) / Fold change /veh LOC730098 (11760151_x_at) / RFU OR4N2 (11742367_at) / Fold change /veh OR4N2 (11742367_at) / RFU PRRT2 (11749266_a_at) / Fold change /veh PRRT2 (11749266_a_at) / RFU SNX32 (11753110_a_at) / Fold change /veh SNX32 (11753110_a_at) / RFU CDHR5 (11726645_a_at) / Fold change /veh CDHR5 (11726645_a_at) / RFU RCAN1 (11760418_a_at) / Fold change /veh RCAN1 (11760418_a_at) / RFU FAM167A (11723789_a_at) / Fold change /veh FAM167A (11723789_a_at) / RFU FAM26E (11764081_at) / Fold change /veh FAM26E (11764081_at) / RFU ISYNA1 (11749810_s_at) / Fold change /veh ISYNA1 (11749810_s_at) / RFU ACY1 (11761880_at) / Fold change /veh ACY1 (11761880_at) / RFU 11764098_at / Fold change /veh 11764098_at / RFU SAMD14 (11745864_x_at) / Fold change /veh SAMD14 (11745864_x_at) / RFU NPB (11741838_a_at) / Fold change /veh NPB (11741838_a_at) / RFU TMPRSS6 (11731388_a_at) / Fold change /veh TMPRSS6 (11731388_a_at) / RFU KRTAP10-2 (11738614_at) / Fold change /veh KRTAP10-2 (11738614_at) / RFU ARHGAP8 /// PRR5-ARHGAP8 (11727945_x_at) / Fold change /veh ARHGAP8 /// PRR5-ARHGAP8 (11727945_x_at) / RFU KRTAP5-7 /// NADSYN1 (11734609_at) / Fold change /veh KRTAP5-7 /// NADSYN1 (11734609_at) / RFU RASL12 (11751679_a_at) / Fold change /veh RASL12 (11751679_a_at) / RFU CDKN2B (11736163_a_at) / Fold change /veh CDKN2B (11736163_a_at) / RFU PRF1 (11729649_at) / Fold change /veh PRF1 (11729649_at) / RFU, ZNF638 /// ZNF638-IT1 / Fold change vs veh, ZNF638 /// ZNF638-IT1 / RFU, PANK3 / Fold change vs veh, PANK3 / RFU, SH3YL1 / Fold change vs veh, SH3YL1 / RFU, ZEB2 / Fold change vs veh, ZEB2 / RFU, NRIP1 / Fold change vs veh, NRIP1 / RFU, PTTG1IP / Fold change vs veh, PTTG1IP / RFU, CAPN2 / Fold change vs veh, CAPN2 / RFU, MED14 / Fold change vs veh, MED14 / RFU, SNORA58 / Fold change vs veh, SNORA58 / RFU, C1orf63 / Fold change vs veh, C1orf63 / RFU, LRRFIP1 / Fold change vs veh, LRRFIP1 / RFU, NDUFAF7 / Fold change vs veh, NDUFAF7 / RFU, SLC12A2 / Fold change vs veh, SLC12A2 / RFU, IBTK / Fold change vs veh, IBTK / RFU, ESF1 / Fold change vs veh, ESF1 / Fold change vs veh, TMEM50B / RFU, TAOK1 / Fold change vs veh, TAOK1 / RFU, ACBD3 / Fold change vs veh, ACBD3 / RFU, TMA16 / Fold change vs veh, TMA16 / RFU, RWDD3 / Fold change vs veh, RWDD3 / RFU, BCAT1 / Fold change vs veh, BCAT1 / RFU, EDEM3 / Fold change vs veh, EDEM3 / RFU, TMEM33 / Fold change vs veh, TMEM33 / RFU, WDR75 / Fold change vs veh, WDR75 / RFU, AHCTF1 / Fold change vs veh, AHCTF1 / RFU, TFRC / Fold change vs veh, TFRC / RFU, ZDHHC17 / Fold change vs veh, ZDHHC17 / RFU, NOM1 / Fold change vs veh, NOM1 / RFU, ARL8B / Fold change vs veh, ARL8B / RFU, ZBTB11 / Fold change vs veh, ZBTB11 / RFU, TAMM41 / Fold change vs veh, TAMM41 / RFU, KIAA1704 /// LOC100996395 / Fold change vs veh, KIAA1704 /// LOC100996395 / RFU, ING1 / Fold change vs veh, ING1 / RFU, TRMT61B / Fold change vs veh, TRMT61B / RFU, FUBP3 / Fold change vs veh, FUBP3 / RFU, TP53 / Fold change vs veh, TP53 / RFU, TNKS2 / Fold change vs veh, TNKS2 / RFU, ZFP14 / Fold change vs veh, ZFP14 / RFU, ACTR2 / Fold change vs veh, ACTR2 / RFU, PPP3R1 / Fold change vs veh, PPP3R1 / RFU, PIK3R1 / Fold change vs veh, PIK3R1 / RFU, HNRNPA1 / Fold change vs veh, HNRNPA1 / RFU, RNF170 / Fold change vs veh, RNF170 / RFU, ZNF28 / Fold change vs veh, ZNF28 / RFU, RNGTT / Fold change vs veh, RNGTT / RFU, OGT / Fold change vs veh, OGT / RFU, BRD1 / Fold change vs veh, BRD1 / RFU, MARS / Fold change vs veh, MARS / RFU, ZNF655 / Fold change vs veh, ZNF655 / RFU, FAHD1 / Fold change vs veh, FAHD1 / RFU, BDP1 / Fold change vs veh, BDP1 / RFU, LRRCC1 / Fold change vs veh, LRRCC1 / RFU, ARID1A / Fold change vs veh, ARID1A / RFU, ZNF146 / Fold change vs veh, ZNF146 / RFU, ZNF330 / Fold change vs veh, ZNF330 / RFU, GPN3 / Fold change vs veh, GPN3 / RFU, C9orf123 / Fold change vs veh, C9orf123 / RFU, N4BP2L2 / Fold change vs veh, N4BP2L2 / RFU, ARFIP1 / Fold change vs veh, ARFIP1 / RFU, FAM179B / Fold change vs veh, FAM179B / RFU, BCL10 / Fold change vs veh, BCL10 / RFU, UHRF1BP1L / Fold change vs veh, UHRF1BP1L / RFU, BET1 / Fold change vs veh, BET1 / RFU, CNOT2 / Fold change vs veh, CNOT2 / RFU, ZNF268 / Fold change vs veh, ZNF268 / Fold change vs veh, ZNF507 / RFU, DGCR2 / Fold change vs veh, DGCR2 / RFU, WDSUB1 / Fold change vs veh, WDSUB1 / Fold change vs veh, HSP90B1 /// MIR3652 / RFU, ADSS / Fold change vs veh, ADSS / RFU, GK / Fold change vs veh, GK / RFU, ZNF148 / Fold change vs veh, ZNF148 / RFU, TAF9 / Fold change vs veh, TAF9 / RFU, SLC1A5 / Fold change vs veh, SLC1A5 / RFU, SLMO2 / Fold change vs veh, SLMO2 / RFU, ABCC4 / Fold change vs veh, ABCC4 / RFU, LOC101060439 /// RAP1B / Fold change vs veh, LOC101060439 /// RAP1B / RFU, RFX7 / Fold change vs veh, RFX7 / RFU, GTPBP10 / Fold change vs veh, GTPBP10 / RFU, CNEP1R1 / Fold change vs veh, CNEP1R1 / RFU, BIVM-ERCC5 /// ERCC5 / Fold change vs veh, BIVM-ERCC5 /// ERCC5 / RFU, ILF3 / Fold change vs veh, ILF3 / RFU 11762660_at / Fold change /veh 11762660_at / RFU VCAN (11757783_s_at) / Fold change /veh VCAN (11757783_s_at) / RFU DDX43 (11728927_at) / Fold change /veh DDX43 (11728927_at) / RFU KRT8 (11758188_x_at) / Fold change /veh KRT8 (11758188_x_at) / RFU NKD1 (11759106_at) / Fold change /veh NKD1 (11759106_at) / RFU SRD5A1 (11742802_a_at) / Fold change /veh SRD5A1 (11742802_a_at) / RFU TPSAB1 /// TPSB2 (11721975_s_at) / Fold change /veh TPSAB1 /// TPSB2 (11721975_s_at) / RFU GSTM3 (11746129_a_at) / Fold change /veh GSTM3 (11746129_a_at) / RFU IL23R (11737362_x_at) / Fold change /veh IL23R (11737362_x_at) / RFU TMEM51 (11727254_a_at) / Fold change /veh TMEM51 (11727254_a_at) / RFU PIWIL2 (11732686_x_at) / Fold change /veh PIWIL2 (11732686_x_at) / RFU ORM1 (11744905_x_at) / Fold change /veh ORM1 (11744905_x_at) / RFU CCDC152 (11743942_at) / Fold change /veh CCDC152 (11743942_at) / RFU ECM1 (11717891_a_at) / Fold change /veh ECM1 (11717891_a_at) / RFU IL23R (11748794_a_at) / Fold change /veh IL23R (11748794_a_at) / RFU TNFAIP8L3 (11732012_x_at) / Fold change /veh TNFAIP8L3 (11732012_x_at) / RFU MBOAT4 (11741988_at) / Fold change /veh MBOAT4 (11741988_at) / RFU 11764193_at / Fold change /veh 11764193_at / RFU TMEM53 (11763286_at) / Fold change /veh TMEM53 (11763286_at) / RFU MAGEB2 (11727129_at) / Fold change /veh MAGEB2 (11727129_at) / RFU TMEM200A (11744735_a_at) / Fold change /veh TMEM200A (11744735_a_at) / RFU CCDC152 (11751479_a_at) / Fold change /veh CCDC152 (11751479_a_at) / RFU FAM211A (11726209_a_at) / Fold change /veh FAM211A (11726209_a_at) / RFU RGS16 (11746705_a_at) / Fold change /veh RGS16 (11746705_a_at) / RFU VCAN (11755009_s_at) / Fold change /veh VCAN (11755009_s_at) / RFU RHOB (11743442_s_at) / Fold change /veh RHOB (11743442_s_at) / RFU RGS16 (11720943_a_at) / Fold change /veh RGS16 (11720943_a_at) / RFU RGS16 (11720944_at) / Fold change /veh RGS16 (11720944_at) / RFU, VPS4B / Fold change vs veh, VPS4B / RFU, CREB1 / Fold change vs veh, CREB1 / RFU, DNAJC13 / Fold change vs veh, DNAJC13 / RFU, GNAQ / Fold change vs veh, GNAQ / RFU, CDK5R1 / Fold change vs veh, CDK5R1 / RFU, ZRANB3 / Fold change vs veh, ZRANB3 / RFU, CUL4A / Fold change vs veh, CUL4A / RFU, CCNY / Fold change vs veh, CCNY / RFU, UFL1 / Fold change vs veh, UFL1 / RFU, COG3 / Fold change vs veh, COG3 / RFU, DIAPH2 / Fold change vs veh, DIAPH2 / RFU, SKA2 / Fold change vs veh, SKA2 / RFU, AFF3 / Fold change vs veh, AFF3 / RFU, LMF1 / Fold change vs veh, LMF1 / RFU, IPO11 / Fold change vs veh, IPO11 / RFU, DFFB / Fold change vs veh, DFFB / RFU, FOXP1 / Fold change vs veh, FOXP1 / RFU, CARD8 / Fold change vs veh, CARD8 / RFU, STRN3 / Fold change vs veh, STRN3 / RFU, ADK / Fold change vs veh, ADK / RFU, RASSF2 / Fold change vs veh, RASSF2 / RFU, WIPF1 / Fold change vs veh, WIPF1 / RFU, LARP1B / Fold change vs veh, LARP1B / RFU, RASA1 / Fold change vs veh, RASA1 / RFU, RB1 / Fold change vs veh, RB1 / RFU, PPFIA1 / Fold change vs veh, PPFIA1 / RFU, MAT2A / Fold change vs veh, MAT2A / RFU, CCT5 / Fold change vs veh, CCT5 / RFU, WDR92 / Fold change vs veh, WDR92 / RFU, CUX1 / Fold change vs veh, CUX1 / RFU, TTC7A / Fold change vs veh, TTC7A / RFU, TMEM135 / Fold change vs veh, TMEM135 / RFU, DEPTOR / Fold change vs veh, DEPTOR / RFU, CPM / Fold change vs veh, CPM / RFU, DNAJB6 / Fold change vs veh, DNAJB6 / RFU, CACNA2D3 / Fold change vs veh, CACNA2D3 / RFU, DTX4 / Fold change vs veh, DTX4 / RFU, TFCP2 / Fold change vs veh, TFCP2 / RFU, GMCL1 /// GMCL1P1 / Fold change vs veh, GMCL1 /// GMCL1P1 / RFU, AEBP2 / Fold change vs veh, AEBP2 / RFU, SNHG1 /// SNORD22 /// SNORD25 /// SNORD26 /// SNORD27 /// SNORD28 /// SNORD29 /// SNORD31 / Fold change vs veh, SNHG1 /// SNORD22 /// SNORD25 /// SNORD26 /// SNORD27 /// SNORD28 /// SNORD29 /// SNORD31 / Fold change (Aza/veh), C12orf56 (ProbeSet 11735607_a_at) / Fold change (ACY-1035/veh), C12orf56 (ProbeSet 11735607_a_at) / Fold change (Aza/veh), FGFR1OP (ProbeSet 11751329_s_at) / Fold change (ACY-1035/veh), FGFR1OP (ProbeSet 11751329_s_at) / Fold change (Aza/veh), VPS36 (ProbeSet 11739960_a_at) / Fold change (ACY-1035/veh), VPS36 (ProbeSet 11739960_a_at) / RFU SYPL1 (11715823_x_at) / Fold change /veh SYPL1 (11715823_x_at) / RFU IGFBP7 (11715501_s_at) / Fold change /veh IGFBP7 (11715501_s_at) / RFU REEP3 (11722064_at) / Fold change /veh REEP3 (11722064_at) / RFU IGLL1 (11728026_x_at) / Fold change /veh IGLL1 (11728026_x_at): dose or concentration left out as unconfirmed
Details: MV-4-11 cells, 48 hours

Nc1ncn([C@@H]2O[C@H](CO)[C@@H](O)[C@H]2O)c(=O)n1 [azacitidine]
RFU OR2T12 /// OR2T33 /// OR2T8 (11738714_s_at): 6.40 RFU
